{"source": "patent US7226598B2", "about": "“Peptide inhibitors of HIV entry” (priority 1998, dated 2007)", "key": {"[1]": {"assay": "Thermal denaturation followed by CD at 222 nm", "format": "physicochemical", "procedure": "(§1) Circular Dichroism. All CD measurements were performed on an Aviv 62 DS cirucular dichroism spectrometer. Standard scans were performed on 10 μM solutions of peptide in PBS (50 mM sodium phosphate, 150 mM sodium chloride [pH 7.4]) from 200 to 260 nm in a 1 cm pathlength cuvette with a 5 second averaging time. The mean residue ellipticity (θ) was calculated by dividing the raw signal by peptide concentration (M), pathlength (mm) and number of amino acids. Percent helicity was calculated according to Chen et al. (Biochemistry, 13, 1974, p3350). Thermal denaturation scans of 10 μM peptide solutions in PBS were recorded at 222 nm. The peptide was heated at two degree intervals starting at 4° C., with an equilibration time of 1.5 minutes and an averaging time of 60 seconds."}, "HIV-1": {"tested_on": "HIV-1", "procedure": "HIV Infectivity Assay. Inhibitory activity of IQN17 and derivatives was determined in an HIV luciferase assay (Chen et al., 1994). Specifically, virus was made by cotransfecting 293T cells with an HIV-1 genome containing a frame-shift mutation in env and luciferase replacing the nef gene (NL43LucR-E-) along with pCMVHXB2, an expression vector with the HXB2 gp160 gene. The resultant virus is only viable for one round of infection since its genome lacks the envelope gene. The cellular debris was removed by low-speed centrifugation. The remaining viral supernatant was used to infect HOS-CD4/Fusion cells (N. Landau, National Institutes of Health AIDS Reagent Program) in the presence of the potentially inhibitory peptides. Two days post infection, the cells were lysed and luciferase activity was monitored on a Wallac AutoLumat LB953 luminometer (Gaithersburg, Md.). IC50s (the peptide concentration at which half of the viral infection is inhibited) were calculated by fitting the data to a Langmuir equation [y=k/(1+[peptide]/IC50)], where y=luciferase activity and k is a scaling constant."}, "[2]": {"assay": "Circular dichroism (helicity)", "format": "physicochemical", "settings": "for CD minimum at 222 nm: 10 μM; for θ222 nm: 20 μM solution of peptide in PBS (legend of Table 1); for helicity: at 20 μM", "procedure": "as §1, with “Standard scans were performed on 10 μM solutions of peptide in PBS (50 mM sodium phosphate, 150 mM sodium chloride [pH 7.4]) from 200 to 260 nm in a 1 cm pathlength cuvette with a 5 second averaging time.” left out"}, "[3]": {"assay": "Sedimentation equilibrium (analytical ultracentrifugation)", "format": "physicochemical", "procedure": "Sedimentation Equilibrium. All measurements were recorded on a Beckman XL-A analytical ultracentrifuge equipped with an An-60 Ti rotor. Lyophilized peptide was resuspended in water, and the peptide concentration was determined (Edelhoch, 1967). The solution was diluted to 100–200 μM and then dialized overnight against PBS. Following dialysis, the concentration was redetermined and the appropriate dilutions were made, using the dialysis buffer. The samples were centrifuged at speeds ranging from 19,000 to 25,000 RPM."}, "[4]": {"assay": "Solubility of the peptide (observation)"}, "[5]": {"tested_on": "HIV, modified to contain a luciferase reporter gene", "format": "cell-based", "settings": "HOS cells expressing CD4 and coreceptor, 6 hours with virus, 48 hours more; read-out: IC50 of inhibition of luciferase activity", "method": "HIV, modified to contain a luciferase reporter gene, is mixed with HOS cells expressing CD4 and coreceptor in the presence of diluted protein for 6 hours at 37° C. […] The virus solution is replaced, and the HOS culture is incubated 48 hours more in fresh media. Luciferase activity is measured in a luminometer."}, "[6]": {"assay": "Thermal denaturation followed by CD at 222 nm", "format": "physicochemical", "settings": "in 2 M GuHCl"}, "[7]": {"tested_on": "syncytia formation between HELA cells expressing CD4 and coreceptor and CHO cells expressing gp160", "assay": "Cell/cell fusion (syncytia) assay", "format": "cell-based, HIV", "settings": "HELA CD4/coreceptor + CHO gp160/Tat, 8 to 24 hours; read-out: IC50 of inhibition of syncytia formation", "method": "Assays were carried out to assess the ability of IQN17 to interact with the C-region of gp41 and inhibit function of the fusion protein. This inhibition of membrane fusion by IQN17 and IQN23 and GCN4-pIQI was assessed using a cell based assay. Proteins IQN17, IQN23 and GCN4-pIQI are serially diluted in modified DMEM media with 5% FCS and aliquoted into slide chambers. HELA cells (4×10^4) expressing CD4 and coreceptor and containing a βgalactosidase gene under the control of the Tat promoter are added. CHO cells (2×10^4) expressing gp160 (precursor protein to gp120/gp41) and Tat are also added. The 400 μl miniculture is incubated at 37° for 8 to 24 hours; fused cells (syncytia) will transcribe and translate β-galactosidase. The cells are fixed in gluteraldehyde and exposed to X-gal/Fe solution for one hour. Syncytia that contain P-galactosidase turn blue-green."}, "[8]": {"settings": "midpoint of thermal denaturation, 10 μM peptide in PBS"}, "[9]": {"settings": "read-out: IC50 (concentration at which half of viral infectivity is inhibited), Table 1"}, "[10]": {"settings": "read-out: IC50 for viral infectivity"}, "[11]": {"settings": "20 μM peptide in PBS, 3.0 = discrete trimer"}}, "note": "Like-named read-outs stand apart in the source and are kept apart here. Marks after values point to notes of the source that are not given here."}
{"substance": "Ac-KIEEIESKQKKIENEIARIKKLLQLTVWGIKQLQARIL-NH2 [IQ22N17]", "values": [{"measurement": "Melting Temperature", "setting": "[1]; at 10 μM", "result": "below 80 °C"}, {"measurement": "Melting Temperature", "setting": "[1]; [8]", "result": "~76", "unit": "°C"}, {"measurement": "melting point", "result": "~ 76 °C"}, {"measurement": "IC50", "setting": "HIV-1; [9]", "result": "~1000", "unit": "nM"}, {"measurement": "IC50", "setting": "HIV-1; [10]", "result": "~1000", "unit": "nM"}, {"measurement": "CD minimum at 222 nm", "setting": "[2]", "result": "approximately −36,000 deg cm^2 dmol^−1"}, {"measurement": "θ222 nm", "setting": "[2]", "result": "~−36,000 deg cm^2 dmol^−1"}, {"measurement": "Mobs/Mcalc", "setting": "[3]; determined at 50 μM", "result": "2.73*"}]}
{"substance": "EIARIKKLLQLTVWGIKQLQARIL [IQ8N17]", "values": [{"measurement": "IC50", "setting": "HIV-1; [9]", "result": "~10000", "unit": "nM"}]}
{"substance": "KQKKIENEIARIKKLLQLTVWGIKWLWARIL [IQ15N17]", "values": [{"measurement": "thermal stability lower than that of IQ22N17", "setting": "[1]", "result": "about 10 degrees"}, {"measurement": "Melting Temperature", "setting": "[1]; [8]", "result": "~64", "unit": "°C"}, {"measurement": "IC50", "setting": "HIV-1; [9]", "result": "~10000", "unit": "nM"}, {"measurement": "CD minimum at 222 nm", "setting": "[2]", "result": "approximately −27,000 deg cm^2 dmol^−1"}, {"measurement": "θ222 nm", "setting": "[2]", "result": "~−27,000 deg cm^2 dmol^−1"}]}
{"substance": "Ac-RMKQIEDKIEEIESKQKKIENEIARIKKLLQLTVWDIKQLQARIL-NH2 [IQN17(G572D), reference compound]", "values": [{"measurement": "IC50", "setting": "HIV-1; [9]", "result": "~20000", "unit": "nM"}, {"measurement": "IC50", "setting": "HIV-1; [10]", "result": "~20000", "unit": "nM"}, {"measurement": "θ222 nm", "setting": "[2]", "result": "~−39,000 deg cm^2 dmol^−1"}]}
{"substance": "Ac-YGGIKKKEIEAIKKEQEAIKKKIEAIEKEIVQARQLLSGIVQQQNNLLRAIEAQQH-NH2 [IZN26]", "values": [{"measurement": "Melting Temperature", "setting": "[1]; [8]", "result": "~82", "unit": "°C"}]}
{"substance": "Ac-KIKKIENEIARIKKLLQLTVWGIKQLQARIL-NH2 [II15N17]", "values": [{"measurement": "Melting Temperature", "setting": "[1]; [8]", "result": "~76", "unit": "°C"}, {"measurement": "melting point", "result": "~ 76 °C"}, {"measurement": "IC50", "setting": "HIV-1; [9]", "result": "~3000", "unit": "nM"}, {"measurement": "IC50", "setting": "HIV-1; [10]", "result": "~3000", "unit": "nM"}, {"measurement": "CD minimum at 222 nm", "setting": "[2]", "result": "~−33,000 deg cm^2 dmol^−1"}, {"measurement": "θ222 nm", "setting": "[2]", "result": "~−33,000 deg cm^2 dmol^−1"}, {"measurement": "Mobs/Mcalc", "setting": "[3]; [11]", "result": 2.64}]}
{"substance": "Ac-KIEEIESKIKKIENEIARIKKLLQLTVWGIKQLQARIL-NH2 [II22N17]", "values": [{"measurement": "Melting Temperature", "setting": "[1]; at 10 μM", "result": "> 100", "unit": "°C"}, {"measurement": "Melting Temperature", "setting": "[1]; [8]", "result": ">100", "unit": "°C"}, {"measurement": "melting point", "result": "> 100", "unit": "°C"}, {"measurement": "IC50", "setting": "HIV-1; [9]", "result": "~170", "unit": "nM"}, {"measurement": "IC50", "setting": "HIV-1; [10]", "result": "~170", "unit": "nM"}, {"measurement": "CD minimum at 222 nm", "setting": "[2]", "result": "~−41,000 deg cm^2 dmol^−1"}, {"measurement": "θ222 nm", "setting": "[2]", "result": "~−41,000 deg cm^2 dmol^−1"}, {"measurement": "Mobs/Mcalc", "setting": "[3]; [11]", "result": 3.02}]}
{"substance": "Ac-LLQLTVWGIKQLQARIL-NH2 [N17, reference compound]", "values": [{"measurement": "IC50", "setting": "HIV-1; [9]", "result": "~10000", "unit": "nM"}, {"measurement": "IC50", "setting": "HIV-1; [10]", "result": "~10000", "unit": "nM"}, {"measurement": "solubility", "setting": "[4]", "result": "difficult to get into solution—it precipitates"}]}
{"substance": "Ac-RMKQIEDKIEEIESKQKKIENEIARIKKLIEAQQHLLQLTVWGIKQLQARIL-NH2 [IQN23]", "values": [{"measurement": "gain in inhibitory activity relative to IQN17", "setting": "HIV-1; gp41 residues increased from 17", "result": "~6", "unit": "fold"}, {"measurement": "IC50", "setting": "HIV-1; [9]", "result": "~30", "unit": "nM"}, {"measurement": "IC50", "setting": "HIV-1; [10]", "result": "~30", "unit": "nM"}, {"measurement": "IC50", "setting": "[5]", "result": "~80", "unit": "nM"}, {"measurement": "Mobs/Mcalc", "setting": "[3]; [11]", "result": 3.29}, {"measurement": "Mobs/Mcalc", "setting": "[3]; at 20 μM", "result": 3.3}]}
{"substance": "Ac-IKKEIEAIKKEQEAIKKKIEAIEKLLQLTVWGIKQLQARIL-NH2 [IZN17]", "values": [{"measurement": "melting point", "result": "> 100", "unit": "°C"}, {"measurement": "IC50", "setting": "HIV-1; [9]", "result": 5.6, "unit": "nM"}, {"measurement": "θ222 nm", "setting": "[2]", "result": "~−31,000 deg cm^2 dmol^−1"}, {"measurement": "helicity", "setting": "[2]", "result": "helical"}, {"measurement": "thermal denaturation temperature compared with IQN17", "setting": "[6]", "result": "ten degrees higher"}, {"measurement": "oligomeric state", "setting": "[3]; at 20 μM", "result": "discretely trimeric"}]}
{"substance": "Ac-RMKQIEDKIEEIESKQKKIENEIARIKKLLQLTVWGIKQLQARIL-NH2 [IQN17]", "values": [{"measurement": "Melting Temperature", "setting": "[1]; at 10 μM", "result": "above 100 °C"}, {"measurement": "Melting Temperature", "setting": "[1]; concentration not given", "result": "above 100 °C"}, {"measurement": "Melting Temperature", "setting": "[1]; [8]", "result": ">100", "unit": "°C"}, {"measurement": "melting point", "result": "> 100", "unit": "°C"}, {"measurement": "IC50", "setting": "HIV-1; [9]", "result": "~180", "unit": "nM"}, {"measurement": "IC50", "setting": "HIV-1; [10]", "result": "~180", "unit": "nM"}, {"measurement": "θ222 nm", "setting": "[2]", "result": "~−36,000 deg cm^2 dmol^−1"}, {"measurement": "helicity", "setting": "[2]", "result": "fully helical"}, {"measurement": "IC50", "setting": "[5]", "result": "~250", "unit": "nM"}, {"measurement": "IC50", "setting": "[7]", "result": "20 to 80", "unit": "nM"}, {"measurement": "Mobs/Mcalc", "setting": "[3]; [11]", "result": 3.15}, {"measurement": "oligomeric state", "setting": "[3]; at 20 μM", "result": "discretely trimeric"}]}
